The values below come from patent publication US20080021056A1, “Fused, Tricyclic Sulfonamide Inhibitors of Gamma Secretase” (priority 2006, published 2008).

One assay has as its target T1, gamma secretase (Mus musculus, UniProt P49769).
T1 construct: host or cells: brain of PDAPP transgenic mice (in vivo)
The settings on record: PDAPP mice, acute inhibition, in-vivo; cited from earlier work.

The next assay deals with T2, gamma-secretase (Homo sapiens, UniProt P49768).
T2 construct: partially purified extract of IMR-32 cell membranes as the gamma-secretase enzyme preparation; endogenous in cells; host or cells: IMR-32 cell membranes (partially purified extract)
The assay is described as follows: Gamma-secretase APP enzyme assay. It counts as biochemical. Conditions: cleavage of MBP-C125 Swe substrate at the Aβ40 site, partially purified extract of IMR-32 cell membranes, ELISA. Put shortly: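 IMR-32 membrane extract (25 Units) was preincubated with inhibitor for 30 min at 37 °C, then MBP-C125swe substrate (0.05 mg/ml) was added for 2 h at 37 °C in Hepes/NaCl with BigCHAPS and brain lipid (0.53 mg/ml). Reaction stopped with 0.1% SDS. Aβ40 neo-epitope product captured overnight at 4 °C and quantified by sandwich ELISA against a six-point standard curve.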

In the case of `C[C@H](NC(=O)Cc1cc(F)cc(F)c1)C(=O)N[C@H](C(=O)OC(C)(C)C)c1ccccc1` [DAPT], the “Aβ in the brain” value at gamma secretase is recorded as “reduction of Aβ in the brain”.

For orientation: IC50 means the concentration needed to halve the response being measured. Low values mean greater potency in that assay, high ones weaker potency in that assay. For the compound `O=S(=O)(c1ccc(C(F)(F)F)cn1)N1c2cc(F)c(F)cc2-c2[nH]ncc2C1C1CC1` (stereo not shown) [4-cyclopropyl-7,8-difluoro-5-(5-(trifluoromethyl)pyridin-2-ylsulfonyl)-4,5-dihydro-1H-pyrazolo[4,3-c]quinoline], the IC50 at gamma-secretase lay in the range of 0.1 to 100 nM.

The compound `O=S(=O)(c1ccc(C(F)(F)F)cc1)N1c2cc(F)c(F)cc2-c2[nH]ncc2C1C1CC1` (single isomer, unassigned) [4-cyclopropyl-7,8-difluoro-5-(4-(trifluoromethyl)phenylsulfonyl)-4,5-dihydro-1H-pyrazolo[4,3-c]quinoline] gave a half-maximal inhibitory concentration (IC50) against gamma-secretase of 0.1 to 100 nM.

Consider `O=S(=O)(c1ccc(Cl)s1)N1c2cc(F)c(F)cc2-c2n[nH]cc2C1C1CC1` (single isomer, unassigned) [5-(5-chlorothiophen-2-ylsulfonyl)-4-cyclopropyl-7,8-difluoro-4,5-dihydro-2H-pyrazolo[4,3-c]quinoline], for which the IC50 at gamma-secretase (enantiomer A) and on gamma-secretase (enantiomer B) was 0.1 to 100 nM each time.

`Cc1noc(C)c1S(=O)(=O)N1c2ccc(F)cc2-c2[nH]ncc2C1C` (stereo not shown) [4-(8-fluoro-4-methyl-1H-pyrazolo[4,3-c]quinolin-5(4H)-ylsulfonyl)-3,5-dimethylisoxazole]: on gamma-secretase, the IC50 was in the range of 501 to 1000 nM.

`O=S(=O)(c1ccc(Cl)cc1)N1c2ccccc2-c2n[nH]cc2C12CC2` [5′-(4-chlorophenylsulfonyl)-2′,5′-dihydrospiro[cyclopropane-1,4′-pyrazolo[4,3-c]quinoline]] registered an IC50 on gamma-secretase of 0.1 to 100 nM.

As for `O=S(=O)(c1ccc(Cl)cc1)N1Cc2c[nH]nc2-c2cc(F)ccc21` [5-[(4-chlorophenyl)sulfonyl]-8-fluoro-4,5-dihydro-2H-pyrazolo[4,3-c]quinoline], the IC50 on gamma-secretase was 0.1 to 100 nM.

At gamma-secretase, `CC1c2c[nH]nc2-c2ccccc2N1S(=O)(=O)c1ccccn1` (stereo not shown) [4-methyl-5-(pyridin-2-ylsulfonyl)-4,5-dihydro-2H-pyrazolo[4,3-c]quinoline] came in with an IC50 of 101 to 500 nM.

On to `O=S(=O)(c1ccc(C(F)(F)F)nc1)N1c2cc(F)c(F)cc2-c2[nH]ncc2C1C1CC1` (stereo not shown) [4-cyclopropyl-7,8-difluoro-5-(6-(trifluoromethyl)pyridin-3-ylsulfonyl)-4,5-dihydro-1H-pyrazolo[4,3-c]quinoline], for which, on gamma-secretase, the IC50 was 0.1 to 100 nM.
